Columns and labels:
human GPR55 = molecular target: T1, human GPR55 (Homo sapiens, UniProt Q9Y2T6); assay: Ca2+ mobilization assay (FLIPR, Calcium5 dye), human GPR55; assay type: cell-based; settings: HEK293 cells co-expressing PK-tagged human GPR55 and EA-tagged beta-arrestin; intracellular calcium increase
T1 construct: expressed in transfected cells; host or cells: HEK293 (human embryonic kidney) cells
Protocol: (§1) This cell-based assay measures the ability of compounds to activate the GPR55 receptor by measuring changes in intracellular calcium levels. HEK293 (human embryonic kidney) cells co-expressing recombinant ProLink (PK) tagged human or rat GPR55 and Enzyme Acceptor (EA) tagged beta-arrestin were seeded into PDL-coated, black-walled clear-bottom 384 well plates in assay buffer (25 mM HEPES, HBSS, 1 mM Probenicid, 0.1% BSA, pH 7.4) containing Calcium5 dye (Molecular Devices). Cells were incubated in suspension with the Calcium5 dye for 1 hour at 37° C., 5% CO2. Dilution series of the compounds in assay buffer were added to the cells in duplicate wells and compound-mediated real-time increases in intracellular calcium concentration were recorded as increased fluorescence using the Molecular Devices FLIPR instrument. Kinetic traces were reduced to a numerical value by subtracting the minimum response from the maximum response.

rat GPR55 = molecular target: T2, rat GPR55 (Rattus norvegicus, UniProt F1MAK4); assay: Ca2+ mobilization assay (FLIPR, Calcium5 dye), rat GPR55; assay type: cell-based; settings: HEK293 cells co-expressing PK-tagged rat GPR55 and EA-tagged beta-arrestin; intracellular calcium increase
T2 construct: expressed in transfected cells; host or cells: HEK293 (human embryonic kidney) cells
T2 sequence (F1MAK4 1-319): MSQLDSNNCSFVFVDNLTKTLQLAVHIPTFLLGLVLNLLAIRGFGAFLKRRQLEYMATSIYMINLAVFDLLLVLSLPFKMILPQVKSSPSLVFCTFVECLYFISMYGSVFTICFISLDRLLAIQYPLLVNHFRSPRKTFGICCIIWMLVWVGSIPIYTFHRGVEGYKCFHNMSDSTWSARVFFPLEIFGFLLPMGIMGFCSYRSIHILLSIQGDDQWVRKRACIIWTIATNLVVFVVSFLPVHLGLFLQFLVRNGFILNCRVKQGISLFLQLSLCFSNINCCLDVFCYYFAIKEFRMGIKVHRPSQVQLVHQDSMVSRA
Protocol: as §1

T1 sequence (Q9Y2T6 whole entry): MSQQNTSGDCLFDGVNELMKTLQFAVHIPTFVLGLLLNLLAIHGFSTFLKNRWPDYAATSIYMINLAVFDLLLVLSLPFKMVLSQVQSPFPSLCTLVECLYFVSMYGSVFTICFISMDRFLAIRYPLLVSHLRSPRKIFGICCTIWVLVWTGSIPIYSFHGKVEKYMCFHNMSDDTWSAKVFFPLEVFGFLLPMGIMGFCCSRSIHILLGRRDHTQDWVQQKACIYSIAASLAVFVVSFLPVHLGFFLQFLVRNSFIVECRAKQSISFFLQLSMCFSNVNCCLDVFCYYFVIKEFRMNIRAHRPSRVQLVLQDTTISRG

SMILES	EC50 (human GPR55)	EC50 (rat GPR55)
C[C@@H](Nc1cnc(-c2cncc(CCF)c2)cn1)c1ccc(F)cc1 [Example 52, (R)-5-(5-(2-fluoroethyl)pyridin-3-yl)-N-(1-(4-fluorophenyl)ethyl)pyrazin-2-amine]	≤ 50 nM	≤ 200 nM
C[C@@H](Nc1cnc(-c2cncc(CC(F)(F)F)c2)nn1)c1ccc(F)cc1 [Example 56, (R)-N-(1-(4-fluorophenyl)ethyl)-3-(5-(2,2,2-trifluoroethyl)pyridin-3-yl)-1,2,4-triazin-6-amine]	≤ 1000 nM	≤ 5000 nM
C[C@@H](Nc1cnc(-c2cnnc(CC(F)(F)F)c2)cn1)c1ccc(F)cc1 [Example 57, (R)-N-(1-(4-fluorophenyl)ethyl)-5-(6-(2,2,2-trifluoroethyl)pyridazin-4-yl)pyrazin-2-amine]	≤ 50 nM	≤ 5000 nM
C[C@@H](Nc1cnc(-c2cnnc(C(O)C(F)(F)F)c2)cn1)c1ccc(F)cc1 (stereo partly drawn) [Example 58, 2,2,2-trifluoro-1-(5-(5-(((R)-1-(4-fluorophenyl)ethyl)amino)pyrazin-2-yl)pyridazin-3-yl)ethan-1-ol]	≤ 50 nM	≤ 5000 nM
C[C@@H](Nc1ccc(-c2ccc3oc(=O)[nH]c3c2)cn1)c1ccc(F)cc1 [Example 59, (R)-5-(6-((1-(4-fluorophenyl)ethyl)amino)pyridin-3-yl)benzo[d]oxazol-2(3H)-one]	≤ 1000 nM	≤ 5000 nM
C[C@@H](Nc1ccc(-c2ccc3[nH]c(=O)oc3c2)cn1)c1ccc(F)cc1 [Example 61, (R)-6-(6-((1-(4-fluorophenyl)ethyl)amino)pyridin-3-yl)benzo[d]oxazol-2(3H)-one]	≤ 1000 nM	≤ 5000 nM
C[C@@H](Nc1cnc(-c2ccc3oc(=O)n(C)c3c2)cn1)c1ccc(F)cc1 [Example 62, (R)-5-(5-((1-(4-fluorophenyl)ethyl)amino)pyrazin-2-yl)-3-methylbenzo[d]oxazol-2(3H)-one]	≤ 1000 nM	≤ 1000 nM
C[C@@H](Nc1ncc(-c2ccc3oc(=O)n(C)c3c2)cn1)c1ccc(F)cc1 [Example 63, (R)-5-(2-((1-(4-fluorophenyl)ethyl)amino)pyrimidin-5-yl)-3-methylbenzo[d]oxazol-2(3H)-one]	≤ 1000 nM	≤ 1000 nM
C[C@@H](Nc1ncc(-c2ccc3oc(=O)n(CCO)c3c2)nn1)c1ccc(F)cc1 [Example 65, (R)-5-(3-((1-(4-fluorophenyl)ethyl)amino)-1,2,4-triazin-6-yl)-3-(2-hydroxyethyl)benzo[d]oxazol-2(3H)-one]	≤ 1000 nM	≤ 5000 nM
COCn1c(=O)oc2ccc(-c3cnc(N[C@H](C)c4ccc(F)cc4)nn3)cc21 [Example 66, (R)-5-(3-((1-(4-fluorophenyl)ethyl)amino)-1,2,4-triazin-6-yl)-3-(methoxymethyl)benzo[d]oxazol-2(3H)-one]	≤ 200 nM	≤ 1000 nM
CCn1c(=O)oc2ccc(-c3cnc(N[C@H](C)c4ccc(F)cc4)nn3)cc21 [Example 67, (R)-3-ethyl-5-(3-((1-(4-fluorophenyl)ethyl)amino)-1,2,4-triazin-6-yl)benzo[d]oxazol-2(3H)-one]	≤ 200 nM	≤ 1000 nM
C[C@@H](Nc1ncc(-c2ccc3oc(=O)n(C(F)F)c3c2)nn1)c1ccc(F)cc1 [Example 68, (R)-3-(difluoromethyl)-5-(3-((1-(4-fluorophenyl)ethyl)amino)-1,2,4-triazin-6-yl)benzo[d]oxazol-2(3H)-one]	≤ 200 nM	≤ 1000 nM
C[C@@H](Nc1ncc(-c2ccc3oc(=O)[nH]c3c2)nn1)c1ccc(F)cc1 [Example 69, (R)-5-(3-((1-(4-fluorophenyl)ethyl)amino)-1,2,4-triazin-6-yl)benzo[d]oxazol-2(3H)-one]	≤ 1000 nM	≤ 1000 nM
CSCn1c(=O)oc2ccc(-c3cnc(N[C@H](C)c4ccc(F)cc4)nn3)cc21 [Example 70, (R)-5-(3-((1-(4-fluorophenyl)ethyl)amino)-1,2,4-triazin-6-yl)-3-((methylthio)methyl)benzo[d]oxazol-2(3H)-one]	≤ 200 nM	≤ 200 nM
C[C@@H](Nc1ncc(-c2ccc3oc(=O)n(CCN(C)C)c3c2)nn1)c1ccc(F)cc1 [Example 71, (R)-3-(2-(dimethylamino)ethyl)-5-(3-((1-(4-fluorophenyl)ethyl)amino)-1,2,4-triazin-6-yl)benzo[d]oxazol-2(3H)-one]	≤ 1000 nM	≤ 5000 nM
C[C@@H](Nc1ncc(-c2ccc3oc(=O)n(CS(C)(=O)=O)c3c2)nn1)c1ccc(F)cc1 [Example 72, (R)-5-(3-((1-(4-fluorophenyl)ethyl)amino)-1,2,4-triazin-6-yl)-3-((methylsulfonyl)methyl)benzo[d]oxazol-2(3H)-one]	≤ 1000 nM	≤ 5000 nM
C[C@@H](Nc1ncc(-c2ccc3oc(=O)n(C)c3c2)nn1)c1ccc(Cl)cc1 [Example 73, (R)-5-(3-((1-(4-chlorophenyl)ethyl)amino)-1,2,4-triazin-6-yl)-3-methylbenzo[d]oxazol-2(3H)-one]	≤ 1000 nM	≤ 5000 nM
CC(Nc1ncc(-c2ccc3oc(=O)n(C)c3c2)nn1)c1ccc(C#N)cc1 (centres unmarked) [Example 74, 4-(1-((6-(3-methyl-2-oxo-2,3-dihydrobenzo[d]oxazol-5-yl)-1,2,4-triazin-3-yl)amino)ethyl)benzonitrile]	≤ 1000 nM	≤ 5000 nM
C[C@@H](Nc1ncc(-c2ccc3oc(=O)n(C)c3c2)nn1)c1ccc(F)cc1F [Example 75, (R)-5-(3-((1-(2,4-difluorophenyl)ethyl)amino)-1,2,4-triazin-6-yl)-3-methylbenzo[d]oxazol-2(3H)-one]	≤ 1000 nM	≤ 1000 nM
C[C@@H](Nc1ncc(-c2ccc3oc(=O)n(C)c3c2)nn1)c1ccc(F)c(F)c1 [Example 76, (R)-5-(3-((1-(3,4-difluorophenyl)ethyl)amino)-1,2,4-triazin-6-yl)-3-methylbenzo[d]oxazol-2(3H)-one]	≤ 1000 nM	≤ 1000 nM
C[C@@H](Nc1ccc(-c2ccc3c(c2)N(C)C(=O)C3(F)F)cn1)c1ccc(F)cc1 [Example 79, (R)-3,3-difluoro-6-(6-((1-(4-fluorophenyl)ethyl)amino)pyridin-3-yl)-1-methylindolin-2-one]	≤ 5000 nM	≤ 5000 nM
C[C@@H](Nc1ncc(-c2ccc3ocnc3c2)nn1)c1ccc(F)cc1 [Example 80, (R)-6-(benzo[d]oxazol-5-yl)-N-(1-(4-fluorophenyl)ethyl)-1,2,4-triazin-3-amine]	≤ 200 nM	≤ 1000 nM
C[C@@H](Nc1ncc(-c2ccc3ncn(C)c3c2)nn1)c1ccc(F)cc1 [Example 81, (R)-N-(1-(4-fluorophenyl)ethyl)-6-(1-methyl-1H-benzo[d]imidazol-6-yl)-1,2,4-triazin-3-amine]	≤ 1000 nM	≤ 5000 nM
C[C@@H](Nc1ncc(-c2cnc3ncn(C)c3c2)nn1)c1ccc(F)cc1 [Example 82, (R)-N-(1-(4-fluorophenyl)ethyl)-6-(1-methyl-1H-imidazo[4,5-b]pyridin-6-yl)-1,2,4-triazin-3-amine]	≤ 1000 nM	≤ 5000 nM
C[C@@H](Nc1ncc(-c2cnc3c(c2)ncn3C)nn1)c1ccc(F)cc1 [Example 83, (R)-N-(1-(4-fluorophenyl)ethyl)-6-(3-methyl-3H-imidazo[4,5-b]pyridin-6-yl)-1,2,4-triazin-3-amine]	≤ 5000 nM	≤ 5000 nM

Reference: patent US20250282728A1, “NITROGEN COMPRISING HETEROCYCLIC DERIVATIVES FOR THE TREATMENT OF DISORDERS ASSOCIATED WITH GPR55 RECEPTOR” (Cerevance, Inc., priority 2022, published 2025)
